In patent US9102591B2, “Benzamides” (H. Lundbeck A/S, priority 2012, dated 2015):

Target: P2X7 receptor (Homo sapiens (Human), UniProt Q99572)
Experiment: P2X7 FLIPR assay (BzATP-stimulated calcium fluorescence, antagonist IC50)
Format: cell-based
Experimental: This example illustrates representative assays for use in evaluating the test compounds for antagonist activity. Compounds of the present invention were tested in vitro for their ability to act as antagonists to the P2X7receptor. […]
Cells were plated to cell density of approximately 15,000 cells/well in 384-well assay plates (50 μl/well) with 1.5% low serum media (DMEM, 1.5% FBS, 1% L-glut (2 mM), 10 mM HUES, 1% P/S). Cells were plated 24 hours prior to assay. Cells expressing human, rat or mouse P2X7 receptor were assayed in the following manner.
Fluo-4 NW dye mix (Molecular Probes, Inc., Eugene, Oreg., USA) was prepared in buffer (see manufacturer's instructions). Cell plates were removed from the 37° C. incubator, the media discarded and then 30 μL of dye was added to each well. Plates were placed in the 37° C., non-CO2 incubator for 30 minutes and then room temperature for 30 minutes.
Compound mixtures (A) were added to assay plates containing cells and placed at room temperature for 30 minutes, then BzATP (B) was added. Fluorescence was read using the Tetra FLIPR® (Molecular Devices, Inc., Sunnyvale, Calif., USA) and IC50 values were calculated by standard methods to determine antagonist activity.

Sequence of P2X7 receptor (Q99572 whole entry): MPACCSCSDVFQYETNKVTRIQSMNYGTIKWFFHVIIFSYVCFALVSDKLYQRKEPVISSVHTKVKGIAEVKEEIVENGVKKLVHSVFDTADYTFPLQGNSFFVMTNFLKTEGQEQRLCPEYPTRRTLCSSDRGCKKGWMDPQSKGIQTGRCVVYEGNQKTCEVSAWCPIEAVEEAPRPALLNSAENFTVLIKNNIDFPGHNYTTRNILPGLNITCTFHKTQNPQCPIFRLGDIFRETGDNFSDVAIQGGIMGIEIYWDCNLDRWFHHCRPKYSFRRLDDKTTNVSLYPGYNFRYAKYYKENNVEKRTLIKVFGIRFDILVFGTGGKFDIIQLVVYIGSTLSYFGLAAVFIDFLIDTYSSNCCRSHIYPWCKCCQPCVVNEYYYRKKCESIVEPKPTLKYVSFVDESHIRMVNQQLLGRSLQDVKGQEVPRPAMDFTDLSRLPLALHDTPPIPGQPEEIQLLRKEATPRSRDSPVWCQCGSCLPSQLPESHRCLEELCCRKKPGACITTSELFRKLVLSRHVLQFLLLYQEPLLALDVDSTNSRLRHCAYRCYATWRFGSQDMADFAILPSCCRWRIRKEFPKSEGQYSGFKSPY

Structure (SMILES)	IC50 [nM]
O=C(NCC1(c2ccc(Cl)cc2)CCOCC1)c1ccccc1C(F)(F)F [N-[4-(4-Chloro-phenyl)-tetrahydro-pyran-4-ylmethyl]-2-trifluoromethyl-benzamide]	1200
O=C(NCC(CC1(C(F)(F)F)CC1)c1ccc(C(F)(F)F)nc1)c1cccc(Cl)c1Cl (single isomer, unassigned; (-)) [(−)2,3-dichloro-N-[3-[1-(trifluoromethyl)cyclopropyl]-2-[6-(] [(−)2,3-dichloro-N-[3-[1-(trifluoromethyl)cyclopropyl]-2-[6-(trifluoromethyl)-3-pyridyl]propyl]benzamide]	25
O=C(NCC1(c2ccc(F)nc2)CCC(F)(F)CC1)c1c(F)cccc1Cl [2-chloro-N-[[4,4-difluoro-1-(6-fluoro-3-pyridyl)cyclohexyl]methyl]-6-fluoro-benzamide]	14
O=C(NCC(CC1(C(F)(F)F)CC1)c1cnc(C(F)(F)F)nc1)c1cccc(F)c1Cl (single isomer, unassigned; (+)) [(+)2-chloro-3-fluoro-N-[3-[1-(trifluoromethyl)cyclopropyl]-2] [(+)2-chloro-3-fluoro-N-[3-[1-(trifluoromethyl)cyclopropyl]-2-[2-(trifluoromethyl)pyrimidin-5-yl]propyl]benzamide]	4.5
O=C(NCC1(c2ccc(Cl)cc2)CCOCC1)c1ccccc1Cl [2-Chloro-N-[4-(4-chloro-phenyl)-tetrahydro-pyran-4-ylmethyl]-benzamide]	800
O=C(NCC(c1ccc(F)cc1)c1cnc(C(F)(F)F)nc1)c1c(F)cccc1Cl (single isomer, unassigned; (+)) [(+)2-chloro-6-fluoro-N-[2-(4-fluorophenyl)-2-[2-(trifluorome] [(+)2-chloro-6-fluoro-N-[2-(4-fluorophenyl)-2-[2-(trifluoromethyl)pyrimidin-5-yl]ethyl]benzamide]	6.7
O=C(NCC(CC1CC1)c1ccc(C(F)(F)F)nc1)c1cccc(F)c1Cl (single isomer, unassigned; (+)) [(+)2-chloro-N-[3-cyclopropyl-2-[6-(trifluoromethyl)-3-pyridy] [(+)2-chloro-N-[3-cyclopropyl-2-[6-(trifluoromethyl)-3-pyridyl]propyl]-3-fluoro-benzamide]	11
O=C(NCC1(c2cnc(C(F)(F)F)nc2)CCOCC1)c1cccc(Cl)c1Cl [2,3-dichloro-N-[[4-[2-(trifluoromethyl)pyrimidin-5-yl]tetrahydropyran-4-yl]methyl]benzamide]	250
O=C(NCC1(c2ccc(Cl)cc2)CCOCC1)c1cccc(Cl)c1Cl [2,3-dichloro-N-((4-(4-chlorophenyl)tetrahydro-2H-pyran-4-yl)methyl)benzamide]	43
Cc1ncc(C(CNC(=O)c2cccc(Cl)c2Cl)CC2(C(F)(F)F)CC2)cn1 (single isomer, unassigned; (-)) [(−)2,3-dichloro-N-[2-(2-methylpyrimidin-5-yl)-3-[1-(trifluor] [(−)2,3-dichloro-N-[2-(2-methylpyrimidin-5-yl)-3-[1-(trifluoromethyl)cyclopropyl]propyl]benzamide]	64
Cc1ncc(C(CNC(=O)c2c(Cl)cccc2Cl)CC2CC2)cn1 (single isomer, unassigned; (+)) [(+)2,6-dichloro-N-[3-cyclopropyl-2-(2-methylpyrimidin-5-yl)p] [(+)2,6-dichloro-N-[3-cyclopropyl-2-(2-methylpyrimidin-5-yl)propyl]benzamide]	220
Cc1ccccc1C(=O)NCC1(c2ccc(Cl)cc2)CCOCC1 [N-[4-(4-Chloro-phenyl)-tetrahydro-pyran-4-ylmethyl]-2-methyl-benzamide]	2100
O=C(NCC(c1ccc(Cl)cc1)C1CCOCC1)c1cccc(Cl)c1Cl (stereo not drawn) [2,3-dichloro-N-[2-(4-chlorophenyl)-2-tetrahydropyran-4-yl-ethyl]benzamide]	1.6
O=C(NCC(c1ccc(F)cc1)c1ccc(C(F)(F)F)nc1)c1cccc(F)c1Cl (single isomer, unassigned; (-)) [(−)2-chloro-3-fluoro-N-[2-(4-fluorophenyl)-2-[6-(trifluorome] [(−)2-chloro-3-fluoro-N-[2-(4-fluorophenyl)-2-[6-(trifluoromethyl)-3-pyridyl]ethyl]benzamide]	7
O=C(NCC(CC1CC1)c1cnc(C(F)(F)F)nc1)c1cccc(Cl)c1Cl (single isomer, unassigned; (+)) [(+)2,3-dichloro-N-[3-cyclopropyl-2-[2-(trifluoromethyl)pyrim] [(+)2,3-dichloro-N-[3-cyclopropyl-2-[2-(trifluoromethyl)pyrimidin-5-yl]propyl]benzamide]	3.9
COc1cccc(C(=O)NCC(CC2CC2)c2ccc(C(F)F)nc2)c1Cl (single isomer, unassigned; (+)) [(+)2-chloro-N-[3-cyclopropyl-2-[6-(difluoromethyl)-3-pyridyl]propyl]-3-methoxy-benzamide]	4.4
COc1ccc(C2(CNC(=O)c3cccc(C)c3C)CCCC2)cc1 [N-[1-(4-Methoxy-phenyl)-cyclopentylmethyl]-2,3-dimethyl-benzamide]	600

Structure (SMILES)	IC50 [nM]
O=C(NCC(c1ccc(F)cc1)c1ccc(C(F)(F)F)nc1)c1cccc(F)c1Cl (single isomer, unassigned; (+)) [(+)2-chloro-3-fluoro-N-[2-(4-fluorophenyl)-2-[6-(trifluorome] [(+)2-chloro-3-fluoro-N-[2-(4-fluorophenyl)-2-[6-(trifluoromethyl)-3-pyridyl]ethyl]benzamide]	4.6
O=C(NCC(CC1(C(F)(F)F)CC1)c1ccc(C2CC2)nc1)c1ccccc1Cl (stereo not drawn) [2-chloro-N-[2-(6-cyclopropyl-3-pyridyl)-3-[1-(trifluoromethyl)cyclopropyl]propyl]benzamide]	94
Cc1ncc(C(CNC(=O)c2ccccc2Cl)C2CCOCC2)cn1 (single isomer, unassigned; (+)) [(+)2-chloro-N-[2-(2-methylpyrimidin-5-yl)-2-tetrahydropyran-] [(+)2-chloro-N-[2-(2-methylpyrimidin-5-yl)-2-tetrahydropyran-4-yl-ethyl]benzamide]	970
O=C(NCC(c1ccccc1)c1ccc(Cl)cc1)c1cccc(Cl)c1Cl (stereo not drawn) [2,3-dichloro-N-(2-(4-chlorophenyl)-2-phenylethyl)benzamide]	120
O=C(NCC(CC1(F)CC1)c1cnc(C(F)(F)F)nc1)c1cccc(Cl)c1Cl (stereo not drawn) [2,3-dichloro-N-[3-(1-fluorocyclopropyl)-2-[2-(trifluoromethyl)pyrimidin-5-yl]propyl]benzamide]	9.3
Cc1cccc(C(=O)NCC2(c3ccc(F)nc3)CCC(F)(F)CC2)c1F [N-((4,4-difluoro-1-(6-fluoropyridin-3-yl)cyclohexyl)methyl)-2-fluoro-3-methylbenzamide]	78
O=C(NCC1(c2ccc(F)nc2)CCC(F)(F)CC1)c1cc(C(F)(F)F)ccc1Cl [2-chloro-N-[[4,4-difluoro-1-(6-fluoro-3-pyridyl)cyclohexyl]methyl]-5-(trifluoromethyl)benzamide]	1.2
O=C(NCC(c1ccc(F)cc1)c1cnc(C(F)(F)F)nc1)c1c(F)cccc1Cl (single isomer, unassigned; (-)) [(−)2-chloro-6-fluoro-N-[2-(4-fluorophenyl)-2-[2-(trifluorome] [(−)2-chloro-6-fluoro-N-[2-(4-fluorophenyl)-2-[2-(trifluoromethyl)pyrimidin-5-yl]ethyl]benzamide]	2.6
O=C(NCC(CC1CC1)c1ccc(C(F)F)nc1)c1ccccc1Cl (single isomer, unassigned; (+)) [(+)2-chloro-N-[3-cyclopropyl-2-[6-(difluoromethyl)-3-pyridyl] [(+)2-chloro-N-[3-cyclopropyl-2-[6-(difluoromethyl)-3-pyridyl]propyl]benzamide]	640
Cc1ncc(C(CNC(=O)c2cccc(Cl)c2Cl)C2CCC(F)(F)CC2)cn1 (stereo not drawn) [2,3-dichloro-N-[2-(4,4-difluorocyclohexyl)-2-(2-methylpyrimidin-5-yl)ethyl]benzamide]	6.2
Cc1ccccc1C(=O)NCC1(c2ccccc2)CCN(C)CC1 [2-Methyl-N-(1-methyl-4-phenyl-piperidin-4-ylmethyl)-benzamide]	64
O=C(NCC(CC1CC1)c1cnc(C(F)(F)F)nc1)c1cccc(F)c1Cl (single isomer, unassigned; (-)) [(−)2-chloro-N-[3-cyclopropyl-2-[2-(trifluoromethyl)pyrimidin] [(−)2-chloro-N-[3-cyclopropyl-2-[2-(trifluoromethyl)pyrimidin-5-yl]propyl]-3-fluoro-benzamide]	4.7
Cc1ncc(C2(CNC(=O)c3ccccc3Cl)CCC(F)(F)CC2)cn1 [2-chloro-N-[[4,4-difluoro-1-(2-methylpyrimidin-5-yl)cyclohexyl]methyl]benzamide]	120
Cc1ccc(C(CNC(=O)c2ccccc2C)CC(C)C)cn1 (stereo not drawn) [2-Methyl-N-[4-methyl-2-(6-methyl-pyridin-3-yl)-pentyl]-benzamide]	29
CC(NC(=O)c1cccc(Cl)c1Cl)C1(c2ccc(Br)nc2)CCC(F)(F)CC1 (stereo not drawn) [N-(1-(1-(6-bromopyridin-3-yl)-4,4-difluorocyclohexyl)ethyl)-2,3-dichlorobenzamide]	43
O=C(NCC(CC1(C(F)(F)F)CC1)c1cnc(C(F)(F)F)nc1)c1cccc(Cl)c1Cl (single isomer, unassigned; (+)) [(+)2,3-dichloro-N-[3-[1-(trifluoromethyl)cyclopropyl]-2-[2-(] [(+)2,3-dichloro-N-[3-[1-(trifluoromethyl)cyclopropyl]-2-[2-(trifluoromethyl)pyrimidin-5-yl]propyl]benzamide]	1.6
